What was measured:
[1] = system: mES cells differentiated towards cardiomyocytes; test: mES cell differentiation towards cardiomyocytes, beating embryoid bodies counted; format: cell-based, mouse; settings: after 13 days of differentiation; FIG. 5B
Source text: FIG. 5: Defective cardiomyocyte differentiation upon teratogenic compound exposure. mES cells were exposed to teratogenic compounds during mES cell differentiation towards cardiomyocytes. The percentage of beating 3D embryoid bodies (examples in A), representing functional cardiomyocytes, was counted. (B) Quantification of beating bodies. Presented values are expressed as percentages of control. Students t-test was used to determine significance. *p<0.05, **p<0.01, ***p<0.001.
For cardiomyocyte differentiation embryonic bodies were used, formed by hanging drops containing 750 cells in Iscoves's Modified Dulbecco's Medium (IMDM). Prior to hanging drop formation, cells were cultured on gelatine-coated dishes in IMDM supplemented with 20% FBS. Cells were detached with cell dissociation buffer (Gibco). After 3 days, embryonic bodies were transferred to a bacterial plate in differentiation medium (IMDM, 10% serum (unless specified otherwise), PS, NEAA and 2-mercapto ethanol). On day 5, the bodies were transferred to a 48-well plate in differentiation medium containing 2% serum, BMP, Activin A, Chir99021 and Xav939. On day 7 embryonic bodies were exposed to only Xav939 in differentiation medium and on day 11 all growth factors were removed and replaced with differentiation medium. Day 13 was used as endpoint for cardiomyocyte differentiation. On this day, beating bodies were quantified and RNA samples collected.

[2] = system: GFP-Ck18 mES reporter cells; test: mES GFP-Ck18 reporter cell differentiation towards hepatocytes, GFP fluorescence intensity; format: cell-based, mouse; settings: after 21 days of differentiation; normalized to DAPI; FIG. 8
Protocol: FIG. 8: Defective hepatocyte differentiation upon teratogenic compound exposure. mES GFP-Ck18 reporter cells were exposed to different teratogenic compounds during mES cell differentiation towards hepatocytes. After 21 days, fluorescence intensity of the hepatocyte specific GFP-Ck18 reporter was measured using microscopy and quantified using Fiji image processing software. GFP intensity was normalized to nuclear intensity measured using DAPI. Presented values are expressed as percentages of control. Student t-test was used for determination of significance. *p<0.05 **p<0.01.*** p<0.001.
Hepatocyte differentiation was started from a monolayer of mES cells on day −1. On day 0, differentiation medium supplemented with Activin A was added. On day 4, the medium was replaced with liver differentiation medium (DMEM containing 10% serum, PS, NEAA and 2-mercaptoethanol) with aFGF and sodium butyrate. On day 9, the medium was replaced with liver differentiation medium containing HGF. On day 14, cells were exposed to liver differentiation medium containing Dexamethasone and Oncostatin M. From day 17 onwards, liver differentiation medium was refreshed every 3-4 days. Endpoint of differentiation was set on day 21.
mES cells were seeded on gelatin-coated culture dishes 24 h prior to transfection. […] GFP expression in differentiated cells was determined by flow cytometry.

[3] = system: hiPSC cells differentiated towards hepatocytes; test: hiPSC differentiation towards hepatocytes in presence of compound, biomarker expression by qPCR; format: cell-based, human
Protocol: The hepatocyte differentiation protocol is based on (Chen et al., 2012, which is incorporated herein by reference). In brief, hiPSC cells were seeded on day −4 in mTESR medium on Matrigel. On day 0 the mTESR medium was replaced with RPMI medium containing B27, Activin A, Chir99021, HGF and PS. On day 3, the cells were refreshed with DMEM medium containing KO serum replacement, Glutamax, NEAA, 2-mercaptoethanol, DMSO and PS. On day 7, the medium was replaced with IMDM medium containing oncostatin M, dexamethasone, ITS, Glutamax, NEAA and PS. On day 10, 14 and 17, cells are refreshed with IMDM medium containing ITS, Glutamax, NEAA and PS. RNA samples were collected on day 0, day 7 and day 21 of differentiation.
(§1) To assess the effect of potential teratogenic agents, hiPSC were treated with the test material from day 0 until the end of differentiation. When differentiation medium was refreshed, fresh compound was added.
(§2) Induction of the biomarker expression was compared with the expression of the gene in undifferentiated cells using quantitative real-time PCR (qRT-PCR). At several time points during differentiation, total RNA was isolated using Trizol […]. Complementary DNA was synthesized using oligo(dT) primers and SuperScript […] ReverseTranscriptase (Invitrogen) according to the manufacturer's protocol. Expression of biomarker genes was determined using specific primers (SEQ ID NOs: 68-99, 105 and 106) spanning the exon-exon boundaries of the genes with the PowerUP SYBR Green Master Mix (Applied Biosystems) on a Quantstudio 5 Real-Time PCR System (Applied Biosystems) using ROX as a passive reference. Relative expression was normalized using expression of the GAPDH and HPRT genes.

[4] = system: hiPSC cells differentiated towards cardiomyocytes; test: hiPSC differentiation towards cardiomyocytes in presence of compound, biomarker expression by qPCR; format: cell-based, human
Protocol: Briefly, on day −4, hiPSC cells were seeded in 24-well plates in mTESR medium on Matrigel. On day 0, the medium was replaced with BEL medium (IMDM, HF12 medium, PFHMII medium, BSA, ITS-X, CD lipids, α-Monothioglycerol, Glutamax, PS and ascorbic acid) containing BMP4, Activin A and Chir99021. At day 3 of differentiation, the medium was refreshed with BEL containing Xav939. On day 7 and 10 of differentiation, the medium was replaced with BEL without growth factors. RNA samples were collected on day 0, day 7 and day 14 of differentiation.
Induction of the biomarker expression was compared with the expression of the gene in undifferentiated cells using quantitative real-time PCR (qRT-PCR). At several time points during differentiation, total RNA was isolated using Trizol (Qiagen). Complementary DNA was synthesized using oligo(dT) primers and SuperScript VI ReverseTranscriptase (Invitrogen) according to the manufacturer's protocol. […] Relative expression was normalized using expression of the GAPDH and HPRT genes.

[5] = system: hiPSC cells differentiated towards neural rosettes; test: hiPSC differentiation towards neural rosettes in presence of compound, biomarker expression by qPCR; format: cell-based, human; settings: compound added during differentiation, day 0 until end, FIG. 2
Protocol: The protocol for neural differentiation is based on (Lippmann, Estevez-Silva, & Ashton, 2014, which is incorporated herein by reference). In short, hiPSC were seeded in mTESR medium on Matrigel on day −1. On day 0, medium was replaced with E6 medium with PS to start differentiation. Medium was refreshed with E6 medium on Day 3 and 7. RNA samples were collected on day 0, day 7 and day 10.
as §1, §2

Row | beating cardiomyocytes (beating embryoid bodies) [1] | GFP-Ck18 intensity [2] | Expression of AFP in hepatocytes [3] | Expression of ALB in hepatocytes [3] | Expression of MYH6 in cardiomyocytes [4] | Expression of PAX6 in neural rosettes [5] | Compound | biomarker expression during hepatocyte differentiation ([3]; compound present during differentiation, qPCR, T-test vs vehicle control, FIG. 3)
1 | decrease | significantly reduced |  |  |  |  | O=c1[nH]cc(F)c(=O)[nH]1 [5′fluoracil, 5-fluorouracil] | 
2 |  |  |  |  |  |  | C=CC(N)=O [acrylamide] | no significant reduction
3 | decrease |  |  |  |  |  | O=C1NC(=O)C(c2ccccc2)(c2ccccc2)N1 [diphenylhydantoin] | 
4 | decrease | significantly reduced | reduced | reduced | reduced | reduced | CC1=C(/C=C/C(C)=C/C=C/C(C)=C/C(=O)O)C(C)(C)CCC1 [retinoic acid, All-trans retinoic acid] | 
